Laboratory results as given in patent US10245328B2, “Gadolinium complex comprising DO3A-tranexamic acid conjugate” (KYUNGPOOK NATIONAL UNIVERSITY INDUSTRY-ACADEMIC COOPERATION …, priority 2014, dated 2019).
pKd: −log10 of the molar value.

Tests used:
[1] = Isothermal titration calorimeter (ITC), binding of Gd^3+ to ligand; conditions: 25° C., pH = 4.5, read-out: Kd (dissociation constant)
Description: In order to quantify binding isotherms of paramagnetic metal ions Gd^3+ with a ligand solution, an ITC test is executed at a VP-ITC isothermal titration microcalorimeter (Microcal, USA). Data collection, analysis and plotting are executed with help of software package Origin, version 8.0 from Microcal. A sample cell has a 1.43 mL volume. The cell is filled with a water-soluble buffer solution of the above compound 1a-e ligand (0.2 mM). A water-soluble buffer solution of Gd^3+ (1.0 mM) is input into a 300 μL continuous agitated (300 rpm) syringe and 10 μL aliquots thereof is injected into the cell. At a 3-mins interval, the cell is delivered over 20 s. Data points are collected on a 2 s basis. The measurement is executed at 25° C. All titrations are executed three times to secure data consistency and solution stability. These titration isotherms are integrated to find out an enthalpy change at each injection. In order to fit well with two mathematically different sets of site models, the titration isotherms are analyzed. Via a calorie measurement, parameters including a binding constant (Ka), a change in enthalpy (ΔH), a stoichiometry of binding (N) are calculated. Next, a free energy (ΔG) and an entropy change (ΔS) are calculated using a following complexation equation: Mn++nL↔MLn:ΔG=−RT·InKa=ΔH-TΔS,
where, R indicates a universal gas constant; T is Kelvin temperature.

[2] = test system: ICR mice; assay: In vivo MR experiment, T1-weighted images after tail vein injection; conditions: for liver-specificity / class of contrast agent: in vivo MR images of mice
Description: The in vivo experiment is executed with compliance to a regulation of Animal Research Committee of KNU. 29-31 g weight 6-weeks male ICR mice are used. […] The measurement is carried out before and after the injection of the complexes 2a-e through the tail vein. […] After the mice wake from the anesthesia after each measurement, the mice were placed in a cage capable of free access to feed and food. For this measurement, the animals are held at about 37° C. using a warm water blanket. MR images are taken using a 1.5 T MR unit (GE Healthcare, Milwaukee, Wis.) with a manual RF coil for a small animal. The coil may be of a receiver type having a 50 mm inner diameter. […] MR images are collected for 24 h after the injection. Anatomical positions having an improved contrast are set for a liver, a bile duct, and a kidney on (post contrast) MR images. For quantitative measurements, a signal intensity in a region of interest (ROI) is measured using Advantage Window software (GE medical, U.S.). The CNR is calculated using a following equation (1): […] SNR is a […].

[3] = Stability against hydrolysis in H2O (HPLC, 197 nm); format: physicochemical; conditions: for HPLC peak 6.54 min, 2d / HPLC peak 7.79 min / HPLC peak 8.86 min / HPLC peak 33.15 min / HPLC peak 40.33 min / HPLC peak 40.81 min / HPLC peak 43.77 min / HPLC peak 44.51 min / HPLC peak 46.56 min: 2d in water
Description: The contrast agents of the present series 100 mg are dissolved in distilled water 10 mL and is maintained as they are for 72 hours at 50° C. Using HPLC, O.D. (Optical Density) values are read at 197 nm and the stability of the agents is determined. The substances at each retention time are examined using LC Mass Spectroscopy for accurate identification of decomposed products.

[4] = Relaxation rate measurement (R1, R2) in PBS and in PBS solution of HSA; format: physicochemical; conditions: 293K; for R1 / R2: PBS pH 7.4, 64 MHz (1.5 T); for R1 in 0.67 mM HSA / R2 in 0.67 mM HSA: PBS solution of 0.67 mM HSA, 64 MHz
Description: T1 measurement is carried out using an inversion recovery method at 1.5 T (64 MHz) in a variable inverse time (TI). MR images are obtained for 35 different TI values in a range of 50 to 1750 ms. A T1 relaxation time is obtained from a nonlinear least-squares fit of a signal strength measured at each TI value. For a T2 CPMG (Carr-Purcell-Meiboon-Gill) pulse sequence measurement, the measurement is adapted to a multi spin-echo measurement. 34 images are obtained at 34 different echo time (TE) values in a range of 10 to 1900 ms. The T2 relaxation time is obtained from a nonlinear least-squares fit of mean pixel values for multi spin-echo measurement at each echo time. Next, a relaxation rate (R1 and R2) is calculated as an inverse of a relaxation time per mM. The determined relaxation time (T1 and T2) and relaxation rate (R1 and R2) are subjected to an image processing to get a relaxation time map and relaxation rate respectively.
For comparison between the complexes 2a-e, there is no noticeable difference in R1's. The measurement is carried out for two different media, that is, PBS (pH=7.4) and PBS solution of HAS in order to indicate which blood-pool effect is expressed by the complexes 2a-e.

Q: With `O=C(O)CN1CCN(CC(=O)O)CCN(CC(=O)NCC2CCC(C(=O)O)CC2)CCN(CC(=O)O)CC1` (centres unmarked) [1b] as the molecule, how does the pKd [1] read?
A: 5.40

Q: With `CCOC(=O)C1CCC(CNC(=O)CN2CCN(CC(=O)O)CCN(CC(=O)O)CCN(CC(=O)O)CC2)CC1` (centres unmarked) [1a] as the molecule, how does the pKd [1] read?
A: 4.72

Q: Which “liver-specificity / class of contrast agent” value ([2]; 0.1 mmol Gd/kg i.v.) does the source give for `NC1CCC(NC(=O)CN2CCN(CC(=O)[O-])CCN(CC(=O)[O-])CCN(CC(=O)[O-])CC2)CC1.[Gd+3]` (centres unmarked) [2d] here?
A: ECF contrast agent

Q: And the “signal enhancement at the kidney and abdominal aorta” value ([2]; initially after 0.1 mmol Gd/kg i.v., ICR mice)?
A: strong signal enhancement

Q: What about the “HPLC peak 6.54 min, 2d” value ([3]; 50° C./3 day) of the same molecule?
A: 90.10%

Q: And the “HPLC peak 7.79 min” value ([3]; 50° C./3 day)?
A: 0.36%

Q: What about the “HPLC peak 8.86 min” value ([3]; 50° C./3 day) of the same molecule?
A: 0.30%

Q: What about the “HPLC peak 33.15 min” value ([3]; 50° C./3 day) of the same molecule?
A: 1.12%

Q: And the “HPLC peak 40.33 min” value ([3]; 50° C./3 day)?
A: 0.007%

Q: What about the “HPLC peak 40.81 min” value ([3]; 50° C./3 day) of the same molecule?
A: 0.14%

Q: And the “HPLC peak 43.77 min” value ([3]; 50° C./3 day)?
A: 0.25%

Q: And the “HPLC peak 44.51 min” value ([3]; 50° C./3 day)?
A: 0.22%

Q: And the “HPLC peak 46.56 min” value ([3]; 50° C./3 day)?
A: 0.18%

Q: What about the “HPLC peak 6.54 min, 2d” value ([3]; initial) of the same molecule?
A: 89.67%

Q: What about the “HPLC peak 7.79 min” value ([3]; initial) of the same molecule?
A: 0.30%

Q: And the “HPLC peak 8.86 min” value ([3]; initial)?
A: 0.30%

Q: What about the “HPLC peak 33.15 min” value ([3]; initial) of the same molecule?
A: 1.20%

Q: What about the “HPLC peak 40.33 min” value ([3]; initial) of the same molecule?
A: 0.16%

Q: And the “HPLC peak 40.81 min” value ([3]; initial)?
A: 0.14%

Q: What about the “HPLC peak 43.77 min” value ([3]; initial) of the same molecule?
A: 0.27%

Q: What about the “HPLC peak 44.51 min” value ([3]; initial) of the same molecule?
A: 0.23%

Q: What about the “HPLC peak 46.56 min” value ([3]; initial) of the same molecule?
A: 0.19%

Q: And the R1 [4]?
A: 3.94 ± 0.13 mM⁻¹ s⁻¹

Q: What about the R2 [4] of the same molecule?
A: 3.68 ± 0.29 mM⁻¹ s⁻¹

Q: And the “R1 in 0.67 mM HSA” value [4]?
A: 3.91 ± 0.09 mM⁻¹ s⁻¹

Q: And the “R2 in 0.67 mM HSA” value [4]?
A: 4.07 ± 0.09 mM⁻¹ s⁻¹

Q: With `NC1CCC(NC(=O)CN2CCN(CC(=O)O)CCN(CC(=O)O)CCN(CC(=O)O)CC2)CC1` (centres unmarked) [1d] as the molecule, how does the pKd [1] read?
A: 4.53

Q: What does the source list for `NCCNC(=O)C1CCC(CNC(=O)CN2CCN(CC(=O)[O-])CCN(CC(=O)[O-])CCN(CC(=O)[O-])CC2)CC1.[Gd+3]` (centres unmarked) [2c]?
A: signal enhancement / signal strength at the liver ([2]; 0.1 mmol Gd/kg i.v., ICR mice, 1.5 T, initial 1 hour): strong signal enhancement; liver-specificity / class of contrast agent ([2]; 0.1 mmol Gd/kg i.v.): strong specificity enhancement; HPLC peak 2.58% ([3]; 2c in water, 50° C./3 day): 0.27%; HPLC peak 7.61% ([3]; 2c in water, 50° C./3 day): 0.14%; HPLC peak 19.86% ([3]; 2c in water, 50° C./3 day): 2.30%; HPLC peak 2.31 min, 2b ([3]; 2c in water, 50° C./3 day): 0.11%; HPLC peak 9.10 min, 2c (trans) ([3]; 2c in water, 50° C./3 day): 93.11%; HPLC peak 10.60 min, 2c (cis) ([3]; 2c in water, 50° C./3 day): 1.19%; HPLC peak 40.68 min, 1c ([3]; 2c in water, 50° C./3 day): 0.002%; HPLC peak 45.53 min ([3]; 2c in water, 50° C./3 day): 0.18%; HPLC peak 49.81 min ([3]; 2c in water, 50° C./3 day): 0.11%; HPLC peak 2.58% ([3]; 2c in water, initial): 0.27%; HPLC peak 7.61% ([3]; 2c in water, initial): 0.14%; HPLC peak 2.31 min, 2b ([3]; 2c in water, initial): 0.06%; HPLC peak 9.10 min, 2c (trans) ([3]; 2c in water, initial): 91.05%; HPLC peak 10.60 min, 2c (cis) ([3]; 2c in water, initial): 1.35%; HPLC peak 40.68 min, 1c ([3]; 2c in water, initial): 1.65%; HPLC peak 45.53 min ([3]; 2c in water, initial): 0.16%; HPLC peak 49.81 min ([3]; 2c in water, initial): 0.09%; R1 [4]: 3.68 ± 0.13 mM⁻¹ s⁻¹; R2 [4]: 3.62 ± 0.26 mM⁻¹ s⁻¹; R1 in 0.67 mM HSA [4]: 3.74 ± 0.07 mM⁻¹ s⁻¹; R2 in 0.67 mM HSA [4]: 4.10 ± 0.07 mM⁻¹ s⁻¹
